Assay [1] concerns the target T1, bovine beta-2 adrenoceptor (Bos taurus, UniProt Q28044).
T1 construct: expressed in transfected cells; host or cells: CHO cells
The assay is described as follows: cAMP assay in CHO cells transfected with the bovine beta-2 adrenoceptor. The format is cell-based. To be noted: cAMP (DiscoveRx Hit Hunter cAMP II) in CHO cells transfected with bovine beta-2 adrenoceptor, 30 minutes with compound, 0.5 mM IBMX. How it is done:
(§1) CHO cells transfected with the bovine or porcine beta-2 adrenceptors were maintained in culture in DMEM/HAMS F12+10% FBS+2 mM glutamine+500 μg/ml geneticin (for the porcine receptor the medium was supplement with 1.5 mM HEPES) at 37° C. with a 5% CO2 atmosphere.
(§2) Cells were plated into 96 well viewplates in medium and incubated overnight at 37° C. with a 5% CO2 atmosphere. The cells were pre-incubated with 0.5 mM IBMX in PBS for 30 minutes prior to incubation with increasing concentrations of experimental compound (5×10^−12 to 10^−5 M) for 30 minutes at 37° C. with a 5% CO2 atmosphere. At the end of the incubation time the compound was removed and the cells assayed for cAMP using the DiscoveRx Hit Hunter cAMP II™ assay kit.
(§3) Duplicate samples were run for each experimental compound and the data generated was analysed using EC50 analysis software in Graphpad Prism.

Assay [2] deals with T2, porcine beta-2 adrenoceptor (Sus scrofa, UniProt Q28997).
T2 construct: expressed in transfected cells; host or cells: CHO cells
T2 sequence (Q28997 whole entry): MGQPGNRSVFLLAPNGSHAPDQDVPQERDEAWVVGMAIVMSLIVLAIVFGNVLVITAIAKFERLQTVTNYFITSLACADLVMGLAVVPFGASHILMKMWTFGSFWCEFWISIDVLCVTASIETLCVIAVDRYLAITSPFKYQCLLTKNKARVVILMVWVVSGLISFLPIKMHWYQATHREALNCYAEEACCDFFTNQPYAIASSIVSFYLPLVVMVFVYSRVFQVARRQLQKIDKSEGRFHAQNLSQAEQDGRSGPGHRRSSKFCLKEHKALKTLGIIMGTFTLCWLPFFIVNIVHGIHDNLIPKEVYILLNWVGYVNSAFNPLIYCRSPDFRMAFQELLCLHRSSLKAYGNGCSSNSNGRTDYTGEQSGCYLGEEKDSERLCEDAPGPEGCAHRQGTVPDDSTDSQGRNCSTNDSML
The assay is described as follows: cAMP assay in CHO cells transfected with the porcine beta-2 adrenoceptor. Type of assay: cell-based. To be noted: cAMP (DiscoveRx Hit Hunter cAMP II) in CHO cells transfected with porcine beta-2 adrenoceptor, 30 minutes with compound, 0.5 mM IBMX. How it is done:
as §1, §2, §3
On the technique in general: Cyclic AMP is a second messenger, typically raised through Gs and lowered through Gi signalling.

T1 sequence (Q28044 whole entry): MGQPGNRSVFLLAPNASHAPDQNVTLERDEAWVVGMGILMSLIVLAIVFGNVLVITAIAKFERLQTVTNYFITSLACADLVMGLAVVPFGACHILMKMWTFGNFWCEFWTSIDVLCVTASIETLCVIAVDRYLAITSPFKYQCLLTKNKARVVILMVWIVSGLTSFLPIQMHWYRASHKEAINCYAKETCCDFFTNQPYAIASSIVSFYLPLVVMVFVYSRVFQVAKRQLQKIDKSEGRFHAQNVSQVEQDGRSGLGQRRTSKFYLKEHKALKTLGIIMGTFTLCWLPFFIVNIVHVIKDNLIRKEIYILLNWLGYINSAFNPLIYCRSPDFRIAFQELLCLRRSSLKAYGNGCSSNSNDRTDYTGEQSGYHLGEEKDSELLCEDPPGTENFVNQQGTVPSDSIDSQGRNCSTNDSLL

For `CC(CCc1cccc(O)c1)NC1CCn2c(=O)[nH]c3cccc(c32)C1O` (single isomer, unassigned) [Example 39, 7-Hydroxy-6-{[3-(3-hydroxyphenyl)-1-methylpropyl]amino}-4,5,6,7-tetrahydroimidazo[4,5,1-jk][1]benzazepin-2(1H)-one], the EC50 in assay [1] is 7.5 nM; in assay [2] it was 5.6 nM. On the same counts, the results for `Cc1ccccc1CCC(C)NC1CCn2c(=O)[nH]c3cccc(c32)C1O` (stereo not shown) [Example 13a, 7-hydroxy-6-{[1-Methyl-3-(2-methylphenyl)propyl]amino}-4,5,6,7-tetrahydroimidazo[4,5,1-jk][1]benzazepin-2(1H)-one] are 4.3 nM and 3.9 nM. For `CC(CCc1ccc(F)cc1)N[C@@H]1CCn2c(=O)[nH]c3cccc(c32)[C@H]1O` (mixture of isomers) [Example 23, 6-{[3-(4-Fluorophenyl)-1-methylpropyl]amino}-7-hydroxy-4,5,6,7-tetrahydroimidazo[4,5,1-jk][1]benzazepin-2(1H)-one], the EC50 in assay [1] amounted to 15.8 nM; in assay [2], 10.5 nM. Regarding `CC(CCc1ccccc1NS(C)(=O)=O)N[C@@H]1CCn2c(=O)[nH]c3cccc(c32)[C@H]1O` (mixture of isomers) [Example 33, N-[2-(3-{[7-Hydroxy-2-oxo-1,2,4,5,6,7-hexahydroimidazo[4,5,1-jk][1]benzazepin-6-yl]amino}butyl)phenyl]methanesulfonamide], the concentration for a half-maximal effect (EC50) in assay [2] amounted to 11.9 nM. `CCC(=O)Nc1cccc(CCC(C)NC2CCn3c(=O)[nH]c4cccc(c43)C2O)c1` (single isomer, unassigned) [Example 61, N-{3-[3-{[7-Hydroxy-2-oxo-1,2,4,5,6,7-hexahydroimidazo[4,5,1-jk][1]benzazepin-6-yl]amino}butyl]phenyl}propanamide]: the concentration for a half-maximal effect (EC50) in assay [1] came out at 12 nM; in assay [2] it was 12.5 nM. On the same counts, the results for `CC(CCc1ccc(OC(C)C)cc1)N[C@@H]1CCn2c(=O)[nH]c3cccc(c32)[C@H]1O` (mixture of isomers) [Example 16, 7-Hydroxy-6-{[3-(4-isopropoxyphenyl)-1-methylpropyl]amino}-4,5,6,7-tetrahydroimidazo[4,5,1-jk][1]benzazepin-2(1H)-one] are 17.3 nM and 5.5 nM. On the same counts, the results for `CC(CCc1ccc(O)cc1)N[C@@H]1CCn2c(=O)[nH]c3cccc(c32)[C@H]1O` (single isomer, unassigned) [Example 2d, 7-Hydroxy-6-{[3-(4-hydroxyphenyl)-1-methylpropyl]amino}-4,5,6,7-tetrahydroimidazo[4,5,1-jk][1]benzazepin-2(1H)-on] are 3.6 nM and 1.9 nM. On the same counts, the results for `CC(CCc1ccccc1)N[C@@H]1CCn2c(=O)[nH]c3cccc(c32)[C@H]1O` (single isomer, unassigned) [Example 9b, 7-Hydroxy-6-[(1-methyl-3-phenylpropyl)amino]-4,5,6,7-tetrahydroimidazo[4,5,1-jk][1]benzazepin-2(1H)-one] are 179 nM and 34.3 nM.

Turning to `CC(/C=C/c1ccccc1F)N[C@@H]1CCn2c(=O)[nH]c3cccc(c32)[C@H]1O` (single isomer, unassigned) [Example 40b, 6-{[3-(2-Fluorophenyl)-1-methylprop-2-en-1-yl]amino}-7-hydroxy-4,5,6,7-tetrahydroimidazo[4,5,1-jk][1]benzazepin-2(1H)-one], the EC50 in assay [1] came to 33.2 nM; in assay [2] it was 18 nM. `CC(CCc1ccc(F)cc1O)N[C@@H]1CCn2c(=O)[nH]c3cccc(c32)[C@H]1O` (mixture of isomers) [Example 24, 6-{[3-(4-Fluoro-2-hydroxyphenyl)-1-methylpropyl]amino}-7-hydroxy-4,5,6,7-tetrahydroimidazo[4,5,1-jk][1]benzazepin-2(1H)-one]: the results for the 50% effective concentration (EC50) in assay [1] and in assay [2] were 2.7 nM and 4.2 nM, respectively. `Cc1cccc(CCC(C)N[C@@H]2CCn3c(=O)[nH]c4cccc(c43)[C@H]2O)c1O` (mixture of isomers) [Example 17, 7-Hydroxy-6-{[3-(2-hydroxy-3-methylphenyl)-1-methylpropyl]amino}-4,5,6,7-tetrahydroimidazo[4,5,1-jk][1]benzazepin-2(1H)-one]: the figures for the EC50 in assay [1] and in assay [2] were 3.3 nM and 3 nM, respectively.

`CC(CCc1cc(Br)cc(Br)c1O)N[C@@H]1CCn2c(=O)[nH]c3cccc(c32)[C@H]1O` (mixture of isomers) [Example 47, 6-{[3-(3,5-Dibromo-2-hydroxyphenyl)-1-methylpropyl]amino}-7-hydroxy-4,5,6,7-tetrahydroimidazo[4,5,1-jk][1]benzazepin-2(1H)-one]: the EC50 was > 200 nM in assay [1] and > 300 nM in assay [2].

As to `CC(CCc1cccc(CO)c1)N[C@@H]1CCn2c(=O)[nH]c3cccc(c32)[C@H]1O` (mixture of isomers) [Example 44, 7-Hydroxy-6-({3-[3-(hydroxymethyl)phenyl]-1-methylpropyl}amino)-4,5,6,7-tetrahydroimidazo[4,5,1-jk][1]benzazepin-2(1H)-one], the values for the EC50 in assay [1] and in assay [2] were 75.7 nM and 61.7 nM, respectively.

As to `CC(CCc1cccc(O)c1Cl)N[C@@H]1CCn2c(=O)[nH]c3cccc(c32)[C@H]1O` (single isomer, unassigned) [Example 50, 6-{[3-(2-Chloro-3-hydroxyphenyl)-1-methylpropyl]amino}-7-hydroxy-4,5,6,7-tetrahydroimidazo[4,5,1-jk][1]benzazepin-2(1H)-one], the half-maximal effective concentration (EC50) in assay [1] was found to be 1.7 nM; in assay [2], 1.3 nM. As to `CC(CCc1cccc(NS(C)(=O)=O)c1)NC1CCn2c(=O)[nH]c3cccc(c32)C1O` (single isomer, unassigned) [Example 65], the results for the EC50 in assay [1] and in assay [2] were 74.7 nM and 31.5 nM, respectively. On the same counts, the results for `C[C@H](CCc1cccc(N)c1)N[C@@H]1CCn2c(=O)[nH]c3cccc(c32)[C@H]1O` (single isomer, unassigned) [Example 46, 6-{[3-(3-Aminophenyl)-1-methylpropyl]amino}-7-hydroxy-4,5,6,7-tetrahydroimidazo[4,5,1-jk][1]benzazepin-2(1H)-one] are 33.8 nM and 28.9 nM. On the same counts, the results for `COc1ccc(O)c(CCC(C)N[C@@H]2CCn3c(=O)[nH]c4cccc(c43)[C@H]2O)c1` (mixture of isomers) [Example 21, 7-Hydroxy-6-{[3-(2-hydroxy-5-methoxyphenyl)-1-methylpropyl]amino}-4,5,6,7-tetrahydroimidazo[4,5,1-jk][1]benzazepin-2(1H)-one] are 3.2 nM and 3.1 nM. On the same counts, the results for `CC(CCc1ccccc1)N[C@@H]1CCn2c(=O)[nH]c3cccc(c32)[C@H]1O` (single isomer, unassigned) [Example 9d, 7-Hydroxy-6-[(1-methyl-3-phenylpropyl)amino]-4,5,6,7-tetrahydroimidazo[4,5,1-jk][1]benzazepin-2(1H)-one] are 5.9 nM and 2.3 nM. `CC(CCc1ccc(Cl)cc1O)N[C@@H]1CCn2c(=O)[nH]c3cccc(c32)[C@H]1O` (mixture of isomers) [Example 26, 6-{[3-(4-Chloro-2-hydroxyphenyl)-1-methylpropyl]amino}-7-hydroxy-4,5,6,7-tetrahydroimidazo[4,5,1-jk][1]benzazepin-2(1H)-one]: the EC50 in assay [1] came out at 3.1 nM; in assay [2] it was 1.7 nM. On the same counts, the results for `CC(CCc1ccc(O)c(F)c1)NC1CCn2c(=O)[nH]c3cccc(c32)C1O` (single isomer, unassigned) [Example 36, 6-{[3-(3-Fluoro-4-hydroxyphenyl)-1-methylpropyl]amino}-7-hydroxy-4,5,6,7-tetrahydroimidazo[4,5,1-jk][1]benzazepin-2(1H)-one] are 1.4 nM and 2.2 nM. On the same counts, the results for `CC(CCc1ccc(Cl)cc1Cl)N[C@@H]1CCn2c(=O)[nH]c3cccc(c32)[C@H]1O` (mixture of isomers) [Example 29, 6-{[3-(2,4-Dichlorophenyl)-1-methylpropyl]amino}-7-hydroxy-4,5,6,7-tetrahydroimidazo[4,5,1-jk][1]benzazepin-2(1H)-one] are 6.9 nM and 6.4 nM. Consider `CC(CCc1ccc(O)cc1)N[C@@H]1CCn2c(=O)[nH]c3cccc(c32)[C@H]1O` (single isomer, unassigned) [Example 2b, 7-Hydroxy-6-{[3-(4-hydroxyphenyl)-1-methylpropyl]amino}-4,5,6,7-tetrahydroimidazo[4,5,1-jk][1]benzazepin-2(1H)-on], for which the EC50 was found to be 298 nM in assay [1] and 121 nM in assay [2]. On to `CC(CCc1cccc(C(F)(F)F)c1)N[C@@H]1CCn2c(=O)[nH]c3cccc(c32)[C@H]1O` (mixture of isomers) [Example 30, 7-Hydroxy-6-({1-methyl-3-[3-(trifluoromethyl)phenyl]propyl}amino)-4,5,6,7-tetrahydroimidazo[4,5,1-jk][1]benzazepin-2(1H)-one], for which the concentration giving a half-maximal response (EC50) came out at 37.1 nM in assay [1] and 5.5 nM in assay [2]. Take `CC(CCc1ccc(NS(=O)(=O)c2ccccc2)cc1)NC1CCn2c(=O)[nH]c3cccc(c32)C1O` (single isomer, unassigned) [Example 67, N-{4-[3-{[7-Hydroxy-2-oxo-1,2,4,5,6,7-hexahydroimidazo[4,5,1-jk][1]benzazepin-6-yl]amino}butyl]phenyl}benzenesulfonamide]: in assay [1], the EC50 was 156 nM.

By EC50 is commonly meant the concentration that produces a half-maximal response.

Values taken from US20080161288A1, “COMPOUNDS” (Pfizer Inc., priority 2006, published 2008).
